Results on 9 compounds are retold here after US12016682B2, “In-vivo monitoring of molecular targets” (The Regents of the University Of California, priority 2013, dated 2024).

{C7MB} = methylene blue on (CH2)7 linker; {C11SH} = thiol on (CH2)11 linker; {MB} = methylene blue redox label; {C6SH} = thiol on (CH2)6 linker

The nature of series [1]: DOX probe characterization: dose-response (affinity) and kinetic response by square-wave voltammetry. It is filed as binding. The source says:
Aptamer probes were synthesized with the following sequences: DOX-probe: 5′-HS—(CH2)6-ACCATCTGTGTAAGGGGTAAGGGGTGGT-MB-3′ (SEQ ID NO: 1), Kanamycin-probe: 5′-HS—(CH2)6-GGGACTTGGTTTAGGTAATGAGTCCC-MB-3′ (SEQ ID NO: 2). DOX-probe is a truncated form of an anthracycline aptamer. A region of the aptamer suspected of supporting a hairpin structure was selected, with an apparent active binding site in the base. The stem was engineered to enable effective signal transduction through stabilization of the folded state. The kanamycin probe was adapted from that described in Rowe et al. Analytical chemistry 82, 7090-5 (2010). Each probe was thiolated at the 5′-end to facilitate self-assembly on the gold working electrodes, and conjugated with an MB redox label at the 3′-end to enable target binding-induced charge transfer modulation. Prior to probe immobilization, the gold electrodes were first cleaned via cyclic voltammetry, with twelve potential sweeps ranging from −0.8 to 0.9 V (with respect to the platinum reference electrode) applied at 0.1 V·s^−1 with a sample interval of 0.001 V and 10 μA sensitivity in 50 mM H2SO4. Subsequently, the chamber was flushed with DI water, followed by the addition of probe solution. The probe solution was prepared by adding 2 μL of 10 mM tris(2-carboxyethyl)phosphine (TCEP) to 1 μL of 200 μM probe stock and incubating at room temperature for 60 minutes to enable cleavage of disulphide bonds. The solution was then diluted to 2 μM in 1× saline-sodium citrate (SSC) buffer for effective self-assembly. The chip was incubated with probe solution for 1 hour at room temperature, permitting the thiolated aptamer to form a monolayer on the gold electrode surface. The chamber was then flushed with 5 mL DI water for 5 minutes, and the remaining electrode area was incubated for two hours in passivation solution, consisting of 1 μL of stock 6-mercaptohexanol diluted to 3 mM in DI water. The chamber was flushed again with DI water and filled with 1×SSC, after which the device was stored at 4° C. until use.
Electrochemical measurements were conducted with an electrochemical analyzer (730B, CH Instruments, Austin, TX). The chip was connected via 8-pin card-edge connector and subjected to SWV scans. Working electrodes were scanned in continuous succession with an average scan period of 8 seconds. To accommodate potential shifts due to the non-ideal on-chip pseudo-reference electrodes, a 400 mV potential range was scanned to reliably capture the MB redox peak. For optimal frequency determination for the KDM, frequency-sweep scans were performed from 5 Hz to 800 Hz, with amplitude of 25 mV. A custom peak-fitting script was created to fit the SWV measurements with a Gaussian curve on a hyperbolic baseline. Peak currents were then normalized to a baseline peak current to generate signal gain. Unless otherwise noted, all reported gains were obtained via KDM with the difference divided average of gains from 7.5 Hz and 75 Hz signals.
Probes were characterized in terms of affinity, specificity and kinetic response. For affinity measurements, a dose-response curve was obtained by subjecting the probe to DOX concentrations (for the DOX-probe) ranging from 50 nM to 10 μM in 1×SSC at a flow-rate of 1 mL·h^−1. At each concentration, the signal was permitted to equilibrate and then ten subsequent readings were obtained from two separate electrodes and averaged as the reported values. The same procedure was applied for specificity characterization, where DOX was injected at 1 μM while off-target reagents mitomycin-C (MTC), ifosfamide (Ifex), Mesna, dacarbazine (DTIC) or cisplatin (CDDP) were injected at 1 mM. […] Voltammograms were taken in immediate succession to provide maximal temporal resolution. Dose-response curves were obtained by fitting data to a one-site binding model, and kinetic-response curves were obtained by fitting data to a one-phase association and dissociation model. […]

Series [2] is described as follows: Cocaine/procaine binding aptamer sensor step response to target in buffer and whole blood (SWV).
For series [3] the following is noted: biphasic, cited from earlier work.
A short description of series [4]: Continuous real-time MEDIC measurement of in vivo DOX concentration in live rats. The following applies: male, Sprague-Dawley, rat, 1 mg·m^−2, alpha-phase half-life t1/2^α.
Procedure: (§1) All rats used in this work were Sprague-Dawley males from Charles River Laboratories (Hollister, CA, USA). To safely mount the device and catheters, rats were sedated throughout the duration of the experiment via isoflurane gas (1-4%) and ketamine/xylazine (56.25 mg·kg^−1 and 7.5 mg·kg^−1 respectively). Animals were placed dorsal side down on a heating pad. The right jugular vein was isolated and catheterized to provide an intravenous injection port. An initial injection of 0.41 mL heparin solution (1000 U·mL^−1 USP) was performed, followed by periodic injections of 0.1 mL every 40 minutes to prevent clot formation in the catheters. The left jugular vein was isolated and cannulated. A 0.3 mL pre-drug injection control blood sample was taken and set aside for the duration of the experiment. The end of a 10-cm length of Tygon® tubing (2.29-mm OD and 0.76-mm ID) was inserted into the cannula to connect the intravenous blood source to the blood port of the MEDIC device. […] Target concentrations were adjusted for a constant 0.3 mL injection volume, and injected via the input catheter in a 30-second bolus at >30 min intervals. Upon completion of each experiment, subjects were euthanized via intravenous Euthasol® injection. The MEDIC input tube was then redirected to the control blood to obtain post-experiment readings of zero-target blood samples.
(§2) A rat with a body surface area of 620 cm^2 was dosed with increasing DOX concentrations (0-2 mg·m^−2) over 4.5 hours (FIG. 12, Panel A).
For series [5] the following is noted: male, Sprague-Dawley, rat, in vivo.
Procedure: as §1, §2
The conditions of series [6]: humans; cited from earlier work.
Series [7] deals with DOX probe. Description: DOX probe specificity characterization against off-target chemotherapy agents. Type of series: binding. The settings on record: 1,000× greater concentrations (1 mM vs DOX 1 μM), 1×SSC. The source says:
Probes were characterized in terms of affinity, specificity and kinetic response. […] At each concentration, the signal was permitted to equilibrate and then ten subsequent readings were obtained from two separate electrodes and averaged as the reported values. […] Voltammograms were taken in immediate succession to provide maximal temporal resolution. Dose-response curves were obtained by fitting data to a one-site binding model, and kinetic-response curves were obtained by fitting data to a one-phase association and dissociation model.

Series [8] can be described thus: in vivo. The following applies: male, Sprague-Dawley, rat, iv. The procedure:
A calibration curve was obtained (FIG. 5), then doses of 32, 64 and 96 mg·kg^−1 were serially injected, followed by a baseline control.

The conditions of series [9]: stated, not measured here; cited from earlier work.
Setting [10] is: after a 5 minute pulse of 600 nM DOX.

As usually defined, the koff is a measure of how fast the partners let go of each other. The term kon denotes a measure of how fast the partners come together. A lower kon goes with slow association. As to “5′-HS—(CH2)6-ACCATCTGTGTAAGGGGTAAGGGGTGGT-MB-3′ (ACCATCTGTGTAAGGGGTAAGGGGTGGT; DNA, 5' {C6SH}, 3' {MB}, backbone and methylation of C not given here) [DOX probe, truncated form of an anthracycline DNA aptamer, thiolated at the 5′-end, MB redox label at the 3′-end]”, the “time to reach 90% saturation” value in series [1] (DOX pulse) is given as ≤ 45 s. Further, the “time to return to 10% of baseline” value in [1] (after DOX pulse) is on record as ≤ 100 s. Further, in series [1] (setting [10]), the koff was 0.0225 ± 0.00083 s⁻¹ and the kon turned out to be 50000 ± 5830 M⁻¹ s⁻¹. In series [1] (in buffer), the dynamic range lay within 0.1 to 10 µM and the “limit of detection (LOD)” value is on record as 10 nM. Also, the Kd in series [1] (signal gain fitted to a Langmuir isotherm, DOX 50 nM to 10 μM in 1×SSC, read-out: apparent Kd) was determined as 0.824 µM.

“5′-HS—(CH2)11-AGACAAGGAAAATCCTTCAATGAAGTGGGTCG-(CH2)7-MB-3′ (AGACAAGGAAAATCCTTCAATGAAGTGGGTCG; DNA, 5' {C11SH}, 3' {C7MB}, backbone and methylation of C not given here) [cocaine/procaine binding aptamer, DNA aptamer thiolated on the 5′-end, methylene blue redox label at the 3′-end]”: in series [2], the Kd is ~190 µM. In [2] (128 μM target in 1×SSC buffer), the koff was ~0.031 s⁻¹. In addition, in [2] (128 μM target in 1×SSC buffer), the kon is ~160 M⁻¹ s⁻¹. The signal gain in series [2] (128 μM target in 1×SSC buffer, before blood exposure) is 60%; in series [2] (128 μM target in buffer after whole blood exposure), ~20%; in [2] (128 μM target in whole blood, after ~1 h whole blood exposure at room temperature), ~10%. The “affinity for its target at 37° C.” value in [2] (37° C.) is reported as “loses affinity for its target”. Besides, the “performance at room temperature” value in [2] (room temperature) was “performs well”.

For the compound `C[C@@H]1[C@H](O)[C@@H](C)/C=C/C=C/C=C/C=C/C=C/C=C/C=C/[C@H](O[C@@H]2O[C@H](C)[C@@H](O)[C@H](N)[C@@H]2O)C[C@@H]2O[C@](O)(C[C@@H](O)C[C@@H](O)[C@H](O)CC[C@@H](O)C[C@@H](O)CC(=O)O[C@H]1C)C[C@H](O)[C@H]2C(=O)O` [Amphotericin B], the “half-life, initial phase” value in [3] (initial phase) was 1440 min. For the same compound, the “half-life, second phase” value in series [3] (second phase) is listed as 15 days.

Usually half-life stands for the time in which the quantity being followed falls by half. Consider `COc1cccc2c1C(=O)c1c(O)c3c(c(O)c1C2=O)C[C@@](O)(C(=O)CO)C[C@@H]3O[C@H]1C[C@H](N)[C@H](O)[C@H](C)O1` [DOX, doxorubicin], for which the values for the half-life in series [4] (first of two injections of 1 mg·m^−2) and in [4] (second of two injections of 1 mg·m^−2) were 10.7 ± 0.5 min and 10.8 ± 1 min, respectively. The “Pearson correlation coefficient of t1/2^α as a function of body surface area” value in series [5] is listed as −0.73. Also, the “alpha-phase plasma clearance time” value in [6] is 6 to 26 min.

On to `N.N.[Cl][Pt][Cl]` [cisplatin], for which the “sensor response to off-target drug” value in series [7] is recorded as “did not respond”.

On to `O=P1(NCCCl)OCCCN1CCCl` (centres unmarked) [ifosfamide], for which, in [7], the “sensor response to off-target drug” value is “did not respond”.

For `NC[C@H]1O[C@H](O[C@H]2[C@H](O)[C@@H](O[C@H]3O[C@H](CO)[C@@H](O)[C@H](N)[C@H]3O)[C@H](N)C[C@@H]2N)[C@H](O)[C@@H](O)[C@@H]1O` [kanamycin], the half-life in series [8] (32 mg/kg) is 7.2 min; in series [8] (64 mg/kg) it was 10 min; in series [8] (96 mg/kg) it was 9 min. The “beta phase t1/2^β” value in series [9] was 120 to 180 min.

As for `O=S(=O)(O)CCS` [mesna], the “sensor response to off-target drug” value in series [7] is “did not respond”.

Regarding `CO[C@@]12[C@H](COC(N)=O)C3=C(C(=O)C(C)=C(N)C3=O)N1C[C@@H]1N[C@@H]12` [mitomycin-C], the “sensor response to off-target drug” value in series [7] is “did not respond”.
